Laboratory results published in patent publication US5776886A, “Intravaginal preparation containing physiologically active peptide” (Teikoku Seiyaku Kabushiki Kaisha, priority 1993, dated 1998).

Test system: calcium level in the serum
Test: Experiment 5: sucrose fatty acid ester with various organic acids, serum calcium reduction
Type: in vivo, Wistar rats
Conditions: for Reduction rate (%) of calcium level in the serum: intravaginal suppository 20 μg, rats
Method: An intravaginal suppository was administered into the rat's vagina, and the blood was collected periodically (2, 4 and 6 hours after administration of the test preparation).
The serum was separated, and the calcium level in the serum was determined by using a kit for determination of calcium (Calcium C Test Wako; manufactured by Wako Pure Chemical Industries, Ltd.) (n=3).
In the same manner as in Experiment 1, each intravaginal suppository was administered to the rat's vagina, and the blood was collected periodically (2, 4 and 6 hours after administration of intravaginal suppository), and the calcium level in the serum thereof was determined (n=5).

## Human calcitonin
Organic acid: citric acid (pH 4) + Ryoto-Sugar Ester R-970, 2 hr
  Reduction rate (%) of calcium level in the serum: 11.4%
Organic acid: citric acid (pH 4) + Ryoto-Sugar Ester R-970, 4 hr
  Reduction rate (%) of calcium level in the serum: 19.6%
Organic acid: citric acid (pH 4) + Ryoto-Sugar Ester R-970, 6 hr
  Reduction rate (%) of calcium level in the serum: 8.4%
Organic acid: lactic acid (pH 4) + Ryoto-Sugar Ester R-970, 2 hr
  Reduction rate (%) of calcium level in the serum: 17.0%
Organic acid: lactic acid (pH 4) + Ryoto-Sugar Ester R-970, 4 hr
  Reduction rate (%) of calcium level in the serum: 10.6%
Organic acid: lactic acid (pH 4) + Ryoto-Sugar Ester R-970, 6 hr
  Reduction rate (%) of calcium level in the serum: 5.4%
Organic acid: malic acid (pH 4) + Ryoto-Sugar Ester R-970, 2 hr
  Reduction rate (%) of calcium level in the serum: 18.6%
Organic acid: malic acid (pH 4) + Ryoto-Sugar Ester R-970, 4 hr
  Reduction rate (%) of calcium level in the serum: 13.0%
Organic acid: malic acid (pH 4) + Ryoto-Sugar Ester R-970, 6 hr
  Reduction rate (%) of calcium level in the serum: 7.0%
Organic acid: tartaric acid (pH 4) + Ryoto-Sugar Ester R-970, 2 hr
  Reduction rate (%) of calcium level in the serum: 12.2%
Organic acid: tartaric acid (pH 4) + Ryoto-Sugar Ester R-970, 4 hr
  Reduction rate (%) of calcium level in the serum: 8.0%
Organic acid: tartaric acid (pH 4) + Ryoto-Sugar Ester R-970, 6 hr
  Reduction rate (%) of calcium level in the serum: 3.4%
Sucrose fatty acid ester with citric, tartaric, lactic or malic acid
  calcium level: significantly reduced regardless of any organic acid to be used
